Source: patent US10857199B2, “Compounds and methods for increasing hair growth” (The University of Kansas, priority 2014, dated 2020)

Assays:
[1] = castrated male mice
Experimental: (§1) To exploit this pathway we used B6CBAF1/J hybrid male mice reported to be susceptible to ADA. As a control and to remove background testosterone effects all the B6CBAF1/J hybrid male mice were castrated and split into two groups (n=6). The first group served as controls (Vehicle) and the second experimental group was treated with 5-α-dihydrotestosterone (5α-DHT). The 5α-DHT was administered by sub-dermal transplantation of slow release pellets purchased from Innovative Research of America. The control group was also transplanted with identically formulated placebo pellets (without 5α-DHT). Both pellets were transplanted below the right ear using a small incision that was sealed with staples. Specifically, two 21 day release and one 90 day release pellets containing 10 mg of 5α-DHT respectively were used for each experimental mouse with corresponding placebo pellets for the controls (n=6). Hair loss of the mice and the effects of 5α-DHT were then monitored over 5 months as described below.
FIGS. 8A-8B includes DEXA analysis pictures of representative Vehicle and 5α-DHT male castrated mice showing increased bone and lean mass with treated mice. […] Two-way ANOVA analysis of the temporal weight change show significant differences for 5α-DHT treatment (p<0.0001) and change over time (p<0.0001) with no significant interaction (n=6). This confirms 5α-DHT pellet infusion was effective (see also below).
Detailed quantitative analyses of the DEXA experiments are presented graphically in FIG. 9. […] Total and femur analyses are shown and the numbers shown on the histograms above the asterisks (*) are p values calculated using a two-tailed unpaired t test at 95% confidence intervals. A P<0.05 is considered significant and NS indicates not significant.

[2] = femurs, 3D μCT, castrated male mice
Experimental: as §1

hair loss = conditions: castrated male mice
Experimental: as §1

hair density = conditions: hair plucked from defined ROI, castrated male mice, vs placebo
Excerpt: A second method was then used to directly quantitate hair density, hair quality and vellus hair occurrence. Specifically, mice were sacrificed and the pelts removed and fixed in buffered formalin for histology. Also, a plastic template with a fixed portal was used to demarcate a defined and identical region of interest (ROI) between the ears and above the shoulder blades (FIG. 12). Hair was then plucked from this region weighed and microscopically analyzed. […] A plastic template with portal removed was used to facilitate hair removal from defined region of interest (ROI). Top pictures comparing control (right) and experimental (left) hairs removed from the ROI. […] The numbers shown on the histograms above the asterisk (*) is the p value calculated using a two-tailed unpaired t test at 95% confidence intervals. A P<0.05 is considered significant.

C[C@]12CCC(=O)C[C@@H]1CC[C@@H]1[C@@H]2CC[C@]2(C)[C@@H](O)CC[C@@H]12 [5α-DHT, 5-α-dihydrotestosterone]
Bone Mineral Content [BMC] ([1]; DEXA, vs placebo pellets): major increases | Bone mineral Density [BMD] ([1]; DEXA, vs placebo pellets): major increases | lean mass ([1]; DEXA, vs vehicle): increased | lean/fat mass ratios ([1]; DEXA, vs vehicle): increased | weight ([1]; sub-dermal slow release pellets, 5 months, vs placebo pellets): major increases | cancellous bone and trabecular architecture at the top of the epiphyses [2]: major increases | hair loss from head and shoulder blade region (inverse integrated pixel density) (hair loss; 5 months, inflection point after 2 months): accelerated hair loss | hair at the pellet implant site (hair loss; photographs, vs placebo pellet): major hair loss | hair density, size and quality (hair density): significantly reduced
